Laboratory results reported in ChEMBL document CHEMBL6109070, “Fatty acid conjugated BimBH3 analogues with d‑amino acid substitution as PTPN1 inhibitors with enhanced activity, biostability and orally available potency for the treatment of diabetes” (Bioorg Med Chem, 2025).

Tests used:
[1] = target: T1, Tyrosine-protein phosphatase non-receptor type 1 (Homo sapiens, UniProt P18031); assay: Inhibition of recombinant human PTPN1 using p-nitrophenyl phosphate as substrate by spectrophotometric analysis
T1 sequence (P18031 whole entry): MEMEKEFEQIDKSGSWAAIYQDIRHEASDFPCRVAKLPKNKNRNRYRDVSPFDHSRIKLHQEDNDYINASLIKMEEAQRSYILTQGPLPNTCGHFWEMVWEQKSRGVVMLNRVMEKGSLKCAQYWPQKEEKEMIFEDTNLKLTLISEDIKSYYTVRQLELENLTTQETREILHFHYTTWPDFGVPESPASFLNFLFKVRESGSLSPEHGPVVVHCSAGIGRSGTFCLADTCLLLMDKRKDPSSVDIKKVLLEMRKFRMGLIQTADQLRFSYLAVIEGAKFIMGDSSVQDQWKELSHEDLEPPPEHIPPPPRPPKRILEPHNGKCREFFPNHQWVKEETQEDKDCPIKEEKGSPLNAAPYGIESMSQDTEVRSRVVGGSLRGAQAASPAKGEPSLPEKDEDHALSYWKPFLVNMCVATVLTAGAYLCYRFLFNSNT

[2] = test system: pepsin; assay: Proteolytic stability of compound assessed as pepsin (unknown origin)-mediated drug degradation at 40 mM by measuring half life measured after 24 hrs by RP-HPLC analysis; format: ADME; conditions: human
[3] = test system: proteinase K; assay: Proteolytic stability of compound assessed as proteinase K (unknown origin)-mediated drug degradation at 0.4 mM by measuring half life measured after 24 hrs by RP-HPLC analysis; format: ADME; conditions: human
[4] = test system: chymotrypsin; assay: Proteolytic stability of compound assessed as chymotrypsin (unknown origin)-mediated drug degradation at 0.6 mM by measuring half life measured after 24 hrs by RP-HPLC analysis; format: ADME; conditions: human
[5] = Stability in rat plasma assessed as half life; format: ADME, cell-free
[6] = target: T2, Tyrosine-protein phosphatase non-receptor type 1 (Homo sapiens) (UniProt P18031); assay: Binding affinity to PTPN1 (unknown origin) assessed as observed […] rate constant (Kobs) by Bio-Layer Interferometric analysis
T2 sequence (whole entry): T1 sequence (P18031 whole entry)

[7] = target: DPP-4 (dipeptidyl peptidase 4) (Homo sapiens, UniProt P27487); assay: Stability of compound assessed as DPP-4 (unknown origin)-mediated drug degradation by measuring half life measured for 10 mins by RP-HPLC analysis; format: ADME
DPP-4 (dipeptidyl peptidase 4), sequence (P27487 whole entry): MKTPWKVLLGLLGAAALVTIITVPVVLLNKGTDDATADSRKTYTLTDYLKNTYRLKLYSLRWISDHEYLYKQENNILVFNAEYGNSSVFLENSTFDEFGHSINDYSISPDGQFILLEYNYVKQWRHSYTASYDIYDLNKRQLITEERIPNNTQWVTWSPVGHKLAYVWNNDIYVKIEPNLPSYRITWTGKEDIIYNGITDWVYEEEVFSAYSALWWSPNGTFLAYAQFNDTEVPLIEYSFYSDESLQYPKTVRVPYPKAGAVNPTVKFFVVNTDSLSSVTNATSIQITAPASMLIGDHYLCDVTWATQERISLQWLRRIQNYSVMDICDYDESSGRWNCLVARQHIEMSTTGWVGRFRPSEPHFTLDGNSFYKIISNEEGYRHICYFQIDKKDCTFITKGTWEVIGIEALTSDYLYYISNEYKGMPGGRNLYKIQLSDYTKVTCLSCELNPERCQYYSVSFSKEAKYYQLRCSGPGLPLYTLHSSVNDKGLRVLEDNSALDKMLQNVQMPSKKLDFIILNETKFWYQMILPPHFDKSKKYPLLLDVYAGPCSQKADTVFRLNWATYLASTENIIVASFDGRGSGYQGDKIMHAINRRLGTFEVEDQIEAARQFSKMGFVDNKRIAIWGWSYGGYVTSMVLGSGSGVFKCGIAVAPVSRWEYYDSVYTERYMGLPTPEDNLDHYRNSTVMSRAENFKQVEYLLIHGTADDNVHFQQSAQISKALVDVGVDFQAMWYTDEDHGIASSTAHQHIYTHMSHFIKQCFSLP

[8] = target: T2, Tyrosine-protein phosphatase non-receptor type 1 (Homo sapiens); assay: Binding affinity to PTPN1 (unknown origin) assessed as dissociation rate constant (Koff) by Bio-Layer Interferometric analysis
[9] = target: T2, Tyrosine-protein phosphatase non-receptor type 1 (Homo sapiens); assay: Binding affinity to PTPN1 (unknown origin) assessed as association rate constant (Kon) by Bio-Layer Interferometric analysis
[10] = target: T1, Tyrosine-protein phosphatase non-receptor type 1; assay: Binding affinity to PTPN1 (unknown origin) assessed as equilibrium dissociation constant (Kd) by Bio-Layer Interferometric analysis

Row | SMILES | IC50 [1] | half-life at 40000 µM [2] | half-life at 400 µM [3] | half-life at 600 µM [4] | half-life [5] | Kobs [6] | half-life [7] | K [8] | K [9] | Kd [10]
1 | CCCCCCCCCCCCCCCC(=O)N[C@H](C(=O)N[C@@H](C)C(=O)N[C@@H](CCC(N)=O)C(=O)N[C@@H](CCC(=O)O)C(=O)N[C@@H](CC(C)C)C(=O)N[C@@H](CCCNC(=N)N)C(=O)N[C@H](CCCNC(=N)N)C(=O)N[C@H](C(=O)NCC(=O)N[C@@H](CC(=O)O)C(=O)N[C@@H](CCC(=O)O)C(=O)N[C@@H](Cc1ccccc1)C(=O)O)[C@@H](C)CC)[C@@H](C)CC | 1640 nM |  |  |  |  |  |  |  |  | 
2 | CCCCCCCCCCCCCCCC(=O)N[C@H](C(=O)N[C@H](Cc1cnc[nH]1)C(=O)N[C@@H](CCC(N)=O)C(=O)N[C@@H](CCC(=O)O)C(=O)N[C@@H](CC(C)C)C(=O)N[C@@H](CCCNC(=N)N)C(=O)N[C@@H](CCCNC(=N)N)C(=O)N[C@H](C(=O)NCC(=O)N[C@@H](CC(=O)O)C(=O)N[C@@H](CCC(=O)O)C(=O)N[C@@H](Cc1ccccc1)C(=O)O)[C@@H](C)CC)[C@@H](C)CC | 871 nM | 1.14 h | 3.79 h | 2.9 h |  |  |  |  |  | 
3 | CCCCCCCCCCCCCCCC(=O)N[C@H](C(=O)N[C@H](CO)C(=O)N[C@@H](CCC(N)=O)C(=O)N[C@@H](CCC(=O)O)C(=O)N[C@@H](CC(C)C)C(=O)N[C@@H](CCCNC(=N)N)C(=O)N[C@@H](CCCNC(=N)N)C(=O)N[C@H](C(=O)NCC(=O)N[C@@H](CC(=O)O)C(=O)N[C@@H](CCC(=O)O)C(=O)N[C@@H](Cc1ccccc1)C(=O)O)[C@@H](C)CC)[C@@H](C)CC | 4410 nM |  |  |  |  |  |  |  |  | 

Second part, the molecule after the results:

Row | IC50 [1] | half-life at 40000 µM [2] | half-life at 400 µM [3] | half-life at 600 µM [4] | half-life [5] | Kobs [6] | half-life [7] | K [8] | K [9] | Kd [10] | SMILES
4 | 461 nM | 1.78 h | 8.66 h | 0.115 h | 98.6 h | 8.87 10^-3No_unit | 13.6 h | 7.35 10^-5/s | 4.4 10^2/Ms | 447 nM | CCCCCCCCCCCCCCCC(=O)N[C@H](C(=O)N[C@H](Cc1ccc(O)cc1)C(=O)N[C@@H](CCC(N)=O)C(=O)N[C@@H](CCC(=O)O)C(=O)N[C@@H](CC(C)C)C(=O)N[C@@H](CCCNC(=N)N)C(=O)N[C@@H](CCCNC(=N)N)C(=O)N[C@H](C(=O)NCC(=O)N[C@@H](CC(=O)O)C(=O)N[C@@H](CCC(=O)O)C(=O)N[C@@H](Cc1ccccc1)C(=O)O)[C@@H](C)CC)[C@@H](C)CC
5 | 805 nM | 1.17 h | 12.3 h | 0.163 h | 70.7 h | 6.14 10^-3No_unit | 7.12 h | 5.85 10^-3/s | 2.78 10^2/Ms | 2110 nM | CCCCCCCCCCCCCCCC(=O)N[C@H](C(=O)N[C@@H](C(=O)N[C@@H](CCC(N)=O)C(=O)N[C@@H](CCC(=O)O)C(=O)N[C@@H](CC(C)C)C(=O)N[C@@H](CCCNC(=N)N)C(=O)N[C@@H](CCCNC(=N)N)C(=O)N[C@H](C(=O)NCC(=O)N[C@@H](CC(=O)O)C(=O)N[C@@H](CCC(=O)O)C(=O)N[C@@H](Cc1ccccc1)C(=O)O)[C@@H](C)CC)C(C)C)[C@@H](C)CC
6 | 855 nM | 1.13 h | 3.21 h | 1.86 h |  |  | 1.42 h |  |  |  | CCCCCCCCCCCCCCCC(=O)N[C@H](C(=O)N[C@@H](C)C(=O)N[C@H](CCC(N)=O)C(=O)N[C@@H](CCC(=O)O)C(=O)N[C@@H](CC(C)C)C(=O)N[C@@H](CCCNC(=N)N)C(=O)N[C@@H](CCCNC(=N)N)C(=O)N[C@H](C(=O)NCC(=O)N[C@@H](CC(=O)O)C(=O)N[C@@H](CCC(=O)O)C(=O)N[C@@H](Cc1ccccc1)C(=O)O)[C@@H](C)CC)[C@@H](C)CC
